Reference: US12152038B2, “Vasopressin receptor antagonists and products and methods related thereto” (Neumora Therapeutics, Inc., priority 2017, dated 2024)
Like-named read-outs stand apart in the source and are kept apart here.

Key:
MDR1 (P-glycoprotein) = molecular target: T1, MDR1 (P-glycoprotein) (Homo sapiens, UniProt P08183); assay: MDR1-MDCK permeability and efflux assay (Papp, efflux ratio, effective efflux ratio); format: in vitro ADME; details: dog; for Papp A→B at 1 h, 10 μM: pH 7.4, read-out: Papp AB MDR1
T1 construct: host or cells: MDCK (MDR1-MDCK; wild-type MDCK as comparator)
T1 sequence (P08183 whole entry): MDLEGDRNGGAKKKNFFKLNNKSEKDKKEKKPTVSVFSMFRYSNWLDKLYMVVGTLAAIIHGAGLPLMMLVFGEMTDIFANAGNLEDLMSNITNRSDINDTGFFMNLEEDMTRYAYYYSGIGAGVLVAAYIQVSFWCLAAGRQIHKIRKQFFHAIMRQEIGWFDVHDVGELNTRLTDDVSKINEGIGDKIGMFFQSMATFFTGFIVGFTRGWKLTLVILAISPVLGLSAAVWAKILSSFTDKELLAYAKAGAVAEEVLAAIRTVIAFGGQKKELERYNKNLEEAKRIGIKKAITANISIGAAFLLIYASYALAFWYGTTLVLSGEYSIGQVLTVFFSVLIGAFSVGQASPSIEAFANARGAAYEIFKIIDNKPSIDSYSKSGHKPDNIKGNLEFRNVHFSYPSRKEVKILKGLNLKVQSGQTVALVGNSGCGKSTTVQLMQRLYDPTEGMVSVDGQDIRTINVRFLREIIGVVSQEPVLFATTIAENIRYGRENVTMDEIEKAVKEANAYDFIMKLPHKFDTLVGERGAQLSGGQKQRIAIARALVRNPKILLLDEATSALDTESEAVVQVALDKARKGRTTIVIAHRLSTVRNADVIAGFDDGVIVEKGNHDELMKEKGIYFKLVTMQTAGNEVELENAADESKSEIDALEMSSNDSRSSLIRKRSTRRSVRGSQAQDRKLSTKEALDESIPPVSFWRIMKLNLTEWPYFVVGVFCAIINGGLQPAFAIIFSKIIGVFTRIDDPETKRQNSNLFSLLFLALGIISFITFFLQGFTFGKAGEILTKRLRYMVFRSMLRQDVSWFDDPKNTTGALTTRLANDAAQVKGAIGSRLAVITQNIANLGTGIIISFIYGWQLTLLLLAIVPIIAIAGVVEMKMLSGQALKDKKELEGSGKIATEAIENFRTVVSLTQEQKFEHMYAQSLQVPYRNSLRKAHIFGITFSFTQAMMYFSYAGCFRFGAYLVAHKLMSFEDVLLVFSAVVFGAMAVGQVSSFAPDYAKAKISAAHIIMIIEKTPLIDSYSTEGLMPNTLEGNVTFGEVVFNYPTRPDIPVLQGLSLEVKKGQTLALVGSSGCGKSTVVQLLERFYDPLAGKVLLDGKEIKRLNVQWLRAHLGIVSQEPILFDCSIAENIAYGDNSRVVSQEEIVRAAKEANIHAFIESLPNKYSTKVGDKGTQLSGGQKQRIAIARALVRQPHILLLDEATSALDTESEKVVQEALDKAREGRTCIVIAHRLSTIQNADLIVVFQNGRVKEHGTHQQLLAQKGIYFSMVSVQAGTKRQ
Procedure: The MDR1-MDCK effective efflux assay was performed as described in the BioFocus Standard Operating Procedure, ADME-SOP-56. Both wild-type (WT) and MDR1-MDCK cells (Solvo Biotechnology) were seeded onto 24-well Transwell plates at 2.35×10^5 cells per well and used in confluent monolayers after a 3 day culture at 37° C. under 5% CO2. For both cell types, test and control compounds (propranolol, vinblastine) were added (10 μM, 0.1% DMSO final, n=2) to donor compartments of the Transwell plate assembly in assay buffer (Hanks balanced salt solution supplemented with 25 mM HEPES, adjusted to pH 7.4) for both apical to basolateral (A>B) and basolateral to apical (B>A) measurements. Incubations were performed at 37° C., with samples removed from both donor and acceptor chambers at T=0 and 1 hour and compound analysed by mass spectrometry (LC-MS/MS) including an analytical internal standard.
Apparent permeability (Papp) values were determined from the relationship: Papp=[CompoundAcceptor T=end]×V Acceptor/([Compound Donor T=0]×V Donor)/incubation time×V Donor/Area×60×10^−6 cm/s
In this equation, V is the volume of each Transwell compartment (apical 125 μL, basolateral 600 μL), and concentrations are the relative MS responses for compound (normalized to internal standard) in the donor chamber before incubation and acceptor chamber at the end of the incubation, and Area is the area of cells exposed for drug transfer (0.33 cm^2).
Efflux ratios (Papp B>A/Papp A>B) were calculated for each compound from the mean Papp values in each direction for both wild-type and MDR1-MDCK cells.
In order to confirm the involvement of MDR1 in any efflux seen, an “effective efflux ratio” (EER) was calculated by comparing compound efflux ratios (ER) in the two cell types by the following equation: EER=ER(MDR1-MDCK)/ER(wild-type MDCK)
This ratio illustrates the effect of the over-expressed MDR1 normalised for the background movement of compound through the wild-type cells.
Lucifer Yellow (LY) was added to the apical buffer in all wells to assess viability of the cell layer. […] Recoveries<50% indicates compound solubility, stability or binding issues, thereby reducing the reliability of a result.
The inherent ability of a potential drug molecule to penetrate the blood brain barrier and avoid efflux by transporters expressed in the brain, can be roughly correlated with the Papp(A-B) and the efflux ratio (as defined above), respectively. A potential drug molecule with an apparent permeability<7 (10^−6 cm/sec) has low permeability (+), >7 (10^−6 cm/sec) but <10 (10^−6 cm/sec) has moderate permeability (++), >10 (10^−6 cm/sec) but <20 (10^−6 cm/sec) has good permeability (+++), and >20 (10^−6 cm/sec) is highly permeable (++++). High permeability in the WT and MDCK II cell permeability assay increases the probability of blood brain barrier penetration and access to the CNS. A potential drug molecule in the above assay system with an efflux ratio or effective efflux ratio of <1 has low probability of being an efflux substrate (++++), >1 but <2 has moderate probability of being an efflux substrate (+++), >2 but <3 has has an increased probability of being an efflux substrate (++), and >3 has a high probability of being an efflux substrate (+). If a potential drug molecule is an efflux substrate, the molecule will have a low probability of reaching exposures in the brain (site of action) that will result in efficacious levels of receptor occupancy.

[1] = molecular target: T2, human Oxytocin Receptor (hOTR) (Homo sapiens, UniProt P30559); assay: Oxytocin receptor (OTR) antagonist assay (FLIPR calcium, CHEM-1-hOTR cells); format: cell-based
T2 construct: host or cells: CHEM-1 (ready-to-assay frozen cells)
T2 sequence (P30559 1-389): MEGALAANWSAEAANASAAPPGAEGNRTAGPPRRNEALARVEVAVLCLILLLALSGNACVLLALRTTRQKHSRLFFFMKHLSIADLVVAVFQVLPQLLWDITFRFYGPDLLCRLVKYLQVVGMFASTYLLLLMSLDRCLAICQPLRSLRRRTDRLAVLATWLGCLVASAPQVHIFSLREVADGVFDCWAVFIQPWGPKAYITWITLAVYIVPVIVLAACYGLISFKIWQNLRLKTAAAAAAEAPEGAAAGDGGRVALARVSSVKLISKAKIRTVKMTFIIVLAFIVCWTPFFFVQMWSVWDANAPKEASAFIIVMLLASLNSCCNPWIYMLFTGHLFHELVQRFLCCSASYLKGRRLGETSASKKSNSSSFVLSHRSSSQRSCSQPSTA
Procedure: This assay was performed in CHEM-1 cells expressing the human Oxytocin Receptor (hOTR) to determine the inhibitory effect of the compounds of the invention on the human Oxytocin receptor. Oxytocin evokes an increase in intracellular calcium in CHEM-1-hOTR cells which is measured in a fluorescence assay on the FLIPR^TETRA using calcium sensitive dyes. Test compounds were assessed for their ability to affect the magnitude of the response to oxytocin, with antagonists showing a concentration-dependent reduction in the oxytocin-mediated fluorescence.
CHEM-1-hOTR ready was used to assay frozen cells (Eurofins #HTS09ORTA) which are supplied with a proprietary Media Component.
Day 1 of the assay: Cells were thawed in a 37° C. water bath and diluted with the supplied Media Component to a final volume of 10 ml. The cell suspension was centrifuged at 1000 rpm for 3 min at room temperature and the supernatant was discarded. The cell pellet was resuspended in Media Component (10.5 ml) and the cells (25 μL) were dispensed into a poly-D-lysine coated black, clear bottomed, 384-well plate. The plates were incubated overnight at 37° C., 5% CO2.
Day 2: At the start of each assay day the potency of oxytocin was assessed and an EC80 concentration was determined for subsequent compound profiling. Assays were performed using a two-step addition protocol on the FLIPR^TETRA; first addition of 5 μl of control or test compound at 10× final in assay buffer with 15 min incubation at 37° C., 5% CO2 followed by 10 μl of oxytocin at 6× final concentration in assay buffer. Changes in fluorescence were monitored for 3 min after both additions on the FLIPR^TETRA using 470-495 nm excitation and 515-575 nm emission wavelengths. The assay buffer consisted of HBSS (+Ca/+Mg) supplemented with 20 mM HEPES, and for the preparation of the oxytocin agonist only, 0.1% w/v bovine serum albumin. The assay was initiated by the removal of growth media from the cells and replaced with 45 μl of Calcium-6 dye (Molecular Devices) prepared at 1× in assay buffer. Cells were loaded with dye for 60-90 min at 37° C., 5% CO2 before initiation of the FLIPR^TETRA protocol. […] For compound profiling, test compounds were first serially diluted in DMSO (10-point curve, 1:3 dilutions) then diluted 33.3-fold in assay buffer prior to addition to the dye loaded cells on the FLIPR^TETRA. At the end of the incubation period 10 μl of oxytocin in assay buffer containing 0.1% BSA was added at the previously determined EC80 concentration.
In-plate controls for the assay included a L-368,899 concentration-response curve as the reference OTR antagonist and an oxytocin concentration-response curve to confirm the reproducibility of the EC80 used for the compound challenge.

[2] = MDCK-MDR1, pH 7.4, ER(MDR1-MDCK)/ER(wild-type MDCK), read-out: EER (Effective Efflux Ratio)
[3] = MDCK-MDR1, pH 7.4, Papp B>A/Papp A>B, MDR1-MDCK cells, read-out: ER MDR1 (Efflux Ratio)

Row | SMILES | efflux ratio at 1 h, 10 μM (MDR1 (P-glycoprotein); [2]) | efflux ratio at 1 h, 10 μM (MDR1 (P-glycoprotein); [3]) | Papp A→B at 1 h, 10 μM (MDR1 (P-glycoprotein); MDR1-MDCK cells) [×10⁻⁶ cm/s] | IC50 [1] [nM]
1 | O=C(N1CC2(C1)CN(c1cnccn1)C2)N1CCC(O)c2cc(Cl)ccc21 (single isomer, unassigned) [13-3-A] |  |  |  | ≥ 1000
2 | Cc1cncc(N2CC3(CN(C(=O)N4c5ccc(F)cc5OCC4C)C3)C2)n1 (single isomer, unassigned) [20-2-A] | 1 to 2 | 1 to 2 | > 20 | 
3 | O=C(N1CC2(C1)CN(c1cccc(F)n1)C2)N1CCc2cc(Cl)ccc21 [1-78] |  |  |  | ≥ 1000
4 | CC1COc2cc(F)ccc2N1C(=O)N1CC2(C1)CN(c1noc3ccccc13)C2 (stereo not drawn) [4-3] | < 1 | < 1 | > 20 | 
5 | O=C(N1CC2(C1)CN(c1ccccn1)C2)N1CCOc2cc(Cl)ccc21 [8-2] | 1 to 2 | < 1 | > 20 | 
6 | O=C(N1CC2(C1)CN(c1cnccn1)C2)N1CCOc2cc(Cl)ccc21 [8-3] | 1 to 2 | 1 to 2 | > 20 | 
7 | O=C(N1CC2(C1)CN(c1ccc(F)cn1)C2)N1CCc2cc(Cl)ccc21 [8-11] | < 1 | < 1 | > 20 | 
8 | O=C(N1CC2(C1)CN(c1cnccn1)C2)N1CCOCc2cc(Cl)ccc21 [8-13] |  |  |  | ≥ 1000
9 | O=C(N1CC2(C1)CN(c1cnccn1)C2)N1CCc2cc(Cl)ccc21 [8-14] | < 1 | 1 to 2 | > 20 | 
10 | O=C(N1CC2(C1)CN(c1cnccn1)C2)N1CCC(O)c2cc(Cl)ccc21 (stereo not drawn) [13-3] |  |  |  | ≥ 1000
11 | O=C(N1CC2(C1)CN(c1ccc(F)cn1)C2)N1CCC(F)c2cc(Cl)ccc21 (stereo not drawn) [14-1, (6-chloro-4-fluoro-3,4-dihydroquinolin-1(2H)-yl)(6-(5-fluoropyridin-2-yl)-2,6-diazaspiro[3.3]heptan-2-yl)methanone] |  |  |  | ≥ 1000
12 | O=C(N1CC2(C1)CN(c1ccc(F)cn1)C2)N1CCC(F)(F)c2cc(Cl)ccc21 [17-1, (6-chloro-4,4-difluoro-3,4-dihydroquinolin-1(2H)-yl)(6-(5-fluoropyridin-2-yl)-2,6-diazaspiro[3.3]heptan-2-yl)methanone] | 1 to 2 | < 1 | > 20 | 

Second part, the compound after the results:

Row | efflux ratio at 1 h, 10 μM (MDR1 (P-glycoprotein); [2]) | efflux ratio at 1 h, 10 μM (MDR1 (P-glycoprotein); [3]) | Papp A→B at 1 h, 10 μM (MDR1 (P-glycoprotein); MDR1-MDCK cells) [×10⁻⁶ cm/s] | IC50 [1] [nM] | SMILES
13 | 1 to 2 | 1 to 2 | > 20 | 100 to 500 | CC1COc2cc(Cl)ccc2N1C(=O)N1CC2(C1)CN(c1ncccn1)C2 (single isomer, unassigned) [1-83-B, (7-chloro-3-methyl-2,3-dihydro-4H-benzo[b][1,4]oxazin-4-yl)(6-(pyrimidin-2-yl)-2,6-diazaspiro[3.3]heptan-2-yl)methanone]
14 |  |  |  | 500 to 1000 | CC1CN(C(=O)N2CC3(C2)CN(c2ccc(F)cn2)C3)c2ccc(Cl)cc2O1 (single isomer, unassigned) [9-3-A]
15 |  |  |  | ≥ 1000 | CC1CN(C(=O)N2CC3(C2)CN(c2ccc(F)cn2)C3)c2ccc(F)cc2O1 (single isomer, unassigned) [9-4-B]
16 |  |  |  | 500 to 1000 | O=C(N1CC2(C1)CN(c1ccccn1)C2)N1CCC(O)c2cc(Cl)ccc21 (single isomer, unassigned) [13-2-A]
17 |  |  |  | 100 to 500 | Cc1cnc(N2CC3(CN(C(=O)N4c5ccc(Cl)cc5OCC4C)C3)C2)cn1 (single isomer, unassigned) [20-5-B]
18 |  |  |  | < 100 | CC1Cc2cc(Cl)ccc2N1C(=O)N1CC2(C1)CN(c1ccc(F)cn1)C2 (stereo not drawn) [8-16]
19 |  |  |  | 100 to 500 | CC1COc2cc(Cl)ccc2N1C(=O)N1CC2(C1)CN(c1cccnn1)C2 (stereo not drawn) [9-1, (7-chloro-3-methyl-2,3-dihydro-4H-benzo[b][1,4]oxazin-4-yl)(6-(pyridazin-3-yl)-2,6-diazaspiro[3.3]heptan-2-yl)methanone]
20 |  |  |  | 500 to 1000 | CC1CN(C(=O)N2CC3(C2)CN(c2ccc(F)cn2)C3)c2ccc(Cl)cc2O1 (stereo not drawn) [9-3]
21 |  |  |  | < 100 | CCC1COc2cc(Cl)ccc2N1C(=O)N1CC2(C1)CN(c1ccccn1)C2 (stereo not drawn) [11-1, (7-chloro-3-ethyl-2,3-dihydro-4H-benzo[b][1,4]oxazin-4-yl)(6-(pyridin-2-yl)-2,6-diazaspiro[3.3]heptan-2-yl)methanone]
22 |  |  |  | 500 to 1000 | CC1COc2cc(F)ccc2N1C(=O)N1CC2(C1)CN(c1ccc(F)cn1)C2 (stereo not drawn) [12-1, (7-fluoro-3-methyl-2,3-dihydro-4H-benzo[b][1,4]oxazin-4-yl)(6-(5-fluoropyridin-2-yl)-2,6-diazaspiro[3.3]heptan-2-yl)methanone]
23 |  |  |  | 500 to 1000 | CC1COc2cc(Cl)c(F)cc2N1C(=O)N1CC2(C1)CN(c1ncccn1)C2 (stereo not drawn) [19-2]
24 |  |  |  | 100 to 500 | CC1COc2cc(Cl)c(F)cc2N1C(=O)N1CC2(C1)CN(c1cccnc1)C2 (stereo not drawn) [19-6]
25 |  |  |  | 100 to 500 | CC1COc2cc(Cl)ccc2N1C(=O)N1CC2(C1)CN(c1cccnc1)C2 (stereo not drawn) [20-1, (7-chloro-3-methyl-2,3-dihydro-4H-benzo[b][1,4]oxazin-4-yl)(6-(pyridin-3-yl)-2,6-diazaspiro[3.3]heptan-2-yl)methanone]
26 |  |  |  | < 100 | CC1COc2cc(Cl)ccc2N1C(=O)N1CC2(C1)CN(c1cc(C#N)ccn1)C2 (stereo not drawn) [20-6]
27 |  |  |  | 100 to 500 | Cc1nc(N2CC3(CN(C(=O)N4c5ccc(Cl)cc5OCC4C)C3)C2)ncc1F (stereo not drawn) [20-7]
28 |  |  |  | 100 to 500 | Cc1ccnc(N2CC3(CN(C(=O)N4c5ccc(Cl)cc5OCC4C)C3)C2)n1 (stereo not drawn) [20-12]
